From US9365553B2, “Heterocyclic compound and H1 receptor antagonist” (Aska Pharmaceutical Co., Ltd., priority 2010, dated 2016)

Legend:
[1] = target: T1, rat H1 receptor (Rattus norvegicus, UniProt P31390); assay: Rat H1 receptor affinity test (Test Example 1); format: binding; settings: rat cerebrum membrane preparation, [3H]-pyrilamine 2 nmol/L
T1 construct: An H1 receptor membrane preparation was prepared from rat cerebrum; from tissue; host or cells: rat cerebrum
Method: An H1 receptor membrane preparation was prepared from rat cerebrum. […] To the resulting each sample, 50 μL of 8 nmol/L [^3H]-pyrilamine (manufactured by PerkinElmer) (final concentration: 2 nmol/L) was added and mixed. After the mixture was incubated at a room temperature for 30 minutes, the reaction solution was collected on a glass filter by a cell harvester (manufactured by Molecular Devices), and then the filter was washed with the incubation buffer. The glass filter was cut off and transferred in a vial. To the vial was added 5 mL of a scintillator (manufactured by National Diagnostics), and the mixture was shaken for not less than one hour. Thereafter, the radioactive concentration was measured by a liquid scintillation counter.

[2] = target: T2, human H1 receptor (Homo sapiens, UniProt P35367); assay: Human H1 receptor affinity test (Test Example 2); format: binding; settings: CHO cell membrane preparation expressing human H1 receptor, [3H]-pyrilamine 2 nmol/L
T2 construct: purchased; host or cells: CHO cells
Method: Chinese hamster ovarian cells (CHO cells) having human H1 receptor forcibly express were purchased and used as an H1 receptor membrane preparation. […] To the resulting each sample, 50 μL of 8 nmol/L [^3H]-pyrilamine (final concentration: 2 nmol/L) was added and mixed. […] The glass filter was cut off and transferred in a vial. To the vial was added 5 mL of a scintillator (manufactured by National Diagnostics), and the mixture was shaken for not less than one hour. Thereafter, the radioactive concentration was measured by a liquid scintillation counter.

[3] = system: histamine-induced skin reaction in rat; assay: Histamine-induced skin reaction test in rat (Test Example 3); format: in vivo; settings: oral, histamine 10 μg/0.1 mL/site intradermal, pigment area, read-out: Skin reaction test in rat ID50
Method: […] One hour after the administration, a 1% Evans Blue physiological saline solution (Tokyo Chemical Industry Co., Ltd.) was administered into the caudal vein in a dose of 5 mL/kg, and immediately histamine 10 μg/0.1 mL/site (manufactured by Wako Pure Chemical Industries, Ltd.) was intradermally administered into the dorsum. Thirty minutes after the administration, the rat was anesthetized with diethyl ether and then euthanized by cervical dislocation. The skin was ablated, and the major axis and minor axis of a spot of the pigment exuded into the skin were measured to calculate the area of the pigment.

[4] = system: histamine-induced skin reaction in mouse; assay: Skin reaction test in mouse (Test Example 4); format: in vivo; settings: oral, histamine 3 μg/50 μL/site intradermal, pigment area, read-out: Skin reaction test in mouse ID50
Method: Each mouse was sheared the day before test and fasted overnight. A low, middle or high dose of each test compound suspended in a 0.5% (W/V) CMC-Na aqueous solution was orally administered to the mouse. One hour after the administration, a 1% Evans Blue physiological saline solution (Tokyo Chemical Industry Co., Ltd.) was administered into the caudal vein in a dose of 10 mL/kg, and immediately histamine 3 μg/50 μL/site was intradermally administered into the dorsum. Thirty minutes after the administration, the mouse was anesthetized with diethyl ether and then euthanized by cervical dislocation. The skin was ablated, and the major axis and minor axis of a spot of the pigment exuded into the skin were measured to calculate the area of the pigment.

[5] = system: mouse IgE-dependent ear edema model; assay: Inhibitory effects on mouse IgE-dependent ear edema model (Test Example 8); format: in vivo; settings: oral twice a day, dose a multiple of mouse ID50 (Dose column of Table E); for Inhibitory effects in each allergic reaction phase: Immediate phase: mouse ear swelling 1 hour after antigen; for Inhibitory effects in each allergic reaction phase: Late phase: mouse ear swelling 24 hours after antigen; for Inhibitory effects in each allergic reaction phase: Very late phase: mouse ear swelling 7 days after antigen;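 on all read-outs here: 5 or 10 times the mouse skin-reaction ID50 per dose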
Method: To each mouse, 0.25 mL of an anti-DNP-IgE antibody (manufactured by SIGMA-ALDRICH) was intravenously administered for passive sensitization. On the day following the administration, an antigen (DNFB solution; manufactured by Wako Pure Chemical Industries, Ltd.) was applied on the right ear to induce dermatitis (ear swelling). One hour, 24 hours and 7 days after the application of the antigen, the thickness of the right ear was measured by a thickness measuring apparatus (dial thickness gauge). […] The thickness of the right ear before the sensitization was measured beforehand; the inhibition rates of the swelling in immediate phase, late phase, and very late phase were calculated.

T1 sequence (P31390 whole entry): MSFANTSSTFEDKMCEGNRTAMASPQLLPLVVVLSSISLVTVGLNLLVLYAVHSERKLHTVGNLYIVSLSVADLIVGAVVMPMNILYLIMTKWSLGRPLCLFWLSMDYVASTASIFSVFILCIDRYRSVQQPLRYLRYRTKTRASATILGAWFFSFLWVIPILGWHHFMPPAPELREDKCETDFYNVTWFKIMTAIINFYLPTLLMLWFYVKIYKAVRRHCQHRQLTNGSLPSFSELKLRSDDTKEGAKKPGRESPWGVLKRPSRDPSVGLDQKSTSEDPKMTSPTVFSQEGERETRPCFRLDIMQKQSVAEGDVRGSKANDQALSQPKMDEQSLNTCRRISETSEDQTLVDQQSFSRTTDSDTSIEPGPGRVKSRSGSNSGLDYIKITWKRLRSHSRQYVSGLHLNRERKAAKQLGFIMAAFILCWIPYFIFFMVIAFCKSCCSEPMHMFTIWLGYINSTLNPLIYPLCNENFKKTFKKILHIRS
T2 sequence (P35367 whole entry): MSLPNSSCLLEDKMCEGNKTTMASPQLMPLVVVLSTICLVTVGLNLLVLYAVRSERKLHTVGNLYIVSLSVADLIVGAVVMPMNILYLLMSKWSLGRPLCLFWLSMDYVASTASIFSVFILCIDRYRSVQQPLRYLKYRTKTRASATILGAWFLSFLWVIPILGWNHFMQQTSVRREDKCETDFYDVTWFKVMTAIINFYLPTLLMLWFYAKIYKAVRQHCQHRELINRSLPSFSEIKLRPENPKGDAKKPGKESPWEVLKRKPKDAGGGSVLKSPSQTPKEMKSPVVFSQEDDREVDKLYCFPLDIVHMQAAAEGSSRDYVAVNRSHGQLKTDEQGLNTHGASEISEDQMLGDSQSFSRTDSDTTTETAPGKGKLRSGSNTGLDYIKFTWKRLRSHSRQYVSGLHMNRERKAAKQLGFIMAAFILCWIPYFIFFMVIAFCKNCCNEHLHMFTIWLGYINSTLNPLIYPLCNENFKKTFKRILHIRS

Structure (SMILES)	IC50 [1] [µM]	IC50 [2] [µM]	also measured
O=C(O)COCCN1CCN(C(c2ccccc2)c2ccc(Cl)cc2)CC1 (centres unmarked) [Cetirizine]	0.088		
O=C(O)c1ccc(CN2CCC(OC(c3ccccc3)c3ccccc3)CC2)o1 [Example 1, 5-(4-Benzhydryloxypiperidin-1-ylmethyl)furan-2-carboxylic acid]	0.081	0.014	
O=C(O)c1coc(CN2CCC(OC(c3ccccc3)c3ccccc3)CC2)n1 [Example 3]	0.055		
O=C(O)c1csc(CN2CCC(OC(c3ccccc3)c3ccccc3)CC2)n1 [Example 4]	0.039		
O=C(O)c1cc(F)cc(CN2CCC(OC(c3ccccc3)c3ccccc3)CC2)c1 [Example 6]	0.038	0.011	ED50 [3]: 0.6 mg/kg
COc1ccc(C(OC2CCN(Cc3cccc(C(=O)O)n3)CC2)c2ccccc2)cc1 (centres unmarked) [Example 17]	0.11		
O=C(O)c1cccc(CN2CCC(OC(c3ccccc3)c3ccc(F)cc3)CC2)n1 (centres unmarked) [Example 18]	0.089		ED50 [3]: 0.2 mg/kg
O=C(O)c1cccc(CN2CCC(OC(c3ccccc3)c3ccccc3F)CC2)n1 (centres unmarked) [Example 20]	0.069	0.029	
O=C(O)c1cccc(CN2CCN(C(c3ccccc3)c3ccc(Cl)cc3)CC2)n1 (centres unmarked) [Example 23]	0.036	0.03	ED50 [3]: 1.8 mg/kg
O=C(O)c1cccc(CN2CCC(OC(c3ccccc3)c3ccccc3)C2)n1 (centres unmarked) [Example 24]	0.0082	0.0092	
O=C(O)c1cccc(CN2CCC(OC(c3ccccc3)c3cccc(F)c3)CC2)n1 (centres unmarked) [Example 25]	0.012	0.022	
O=C(O)c1cccc(CN2CCC(OC(c3ccccc3)c3cccc(C(F)(F)F)c3)CC2)n1 (centres unmarked) [Example 26]	0.083		
O=C(O)c1ccnc(CN2CCC(OC(c3ccccc3)c3ccccc3)CC2)c1 [Example 27]	0.031	0.0089	ED50 [4]: 0.03 mg/kg; Inhibitory effects in each allergic reaction phase: Immediate phase [5]: ++ (++ Inhibitory rate 45 to 20%); Inhibitory effects in each allergic reaction phase: Late phase [5]: ++ (++ Inhibitory rate 45 to 20%); Inhibitory effects in each allergic reaction phase: Very late phase [5]: ++ (++ Inhibitory rate 45 to 20%)
O=C(O)c1cc(CN2CCC(OC(c3ccccc3)c3ccccc3)CC2)ccn1 [Example 29]	0.063		
O=C(O)c1cncc(CN2CCC(OC(c3ccccc3)c3ccccc3)CC2)c1 [Example 30]	0.042	0.015	
O=C(O)c1ccc(CN2CCC(OC(c3ccccc3)c3ccccc3)CC2)[nH]1 [Example 35, 5-(4-Benzhydryloxypiperidin-1-ylmethyl)-1H-pyrrole-2-carboxylic acid]	0.061	0.015	
O=C(O)c1nc(CN2CCC(OC(c3ccccc3)c3ccccc3)CC2)cs1 [Example 36]	0.099		
O=C(O)c1ccnc(CN2CCC(OC(c3ccccc3)c3cccc(F)c3)CC2)c1 (centres unmarked) [Example 40]	0.0012	0.026	
Cc1ccc(C(OC2CCN(Cc3cc(C(=O)O)ccn3)CC2)c2ccccc2)cc1 (centres unmarked) [Example 41]	0.019	0.018	
O=C(O)c1ccnc(CN2CCC(OC(c3ccccc3)c3ccc(Cl)cc3)CC2)c1 (centres unmarked) [Example 42]	0.024	0.019	ED50 [3]: 1.8 mg/kg
O=C(O)c1ccc(CN2CCC(OC(c3ccccc3)c3ccc(Cl)cc3)CC2)o1 (centres unmarked) [Example 43]	0.018	0.012	
O=C(O)c1nc(CN2CCC(OC(c3ccccc3)c3ccc(Cl)cc3)CC2)cs1 (centres unmarked) [Example 44]	0.02		
Cc1ccc(C(OC2CCN(Cc3ccc(C(=O)O)o3)CC2)c2ccccc2)cc1 (centres unmarked) [Example 46]	0.068		
O=C(O)c1cccc(CN2CCC(OC(c3ccc(F)cc3)c3cccc(F)c3)CC2)n1 (centres unmarked) [Example 49]	0.089	0.017	ED50 [3]: 1.5 mg/kg

Structure (SMILES)	IC50 [1] [µM]	IC50 [2] [µM]	also measured
O=C(O)c1ccnc(CN2CCC(OC(c3ccccc3)c3ccc(F)c(F)c3)CC2)c1 (centres unmarked) [Example 51]		0.0049	ED50 [4]: 0.07 mg/kg
O=C(O)c1ccnc(CN2CCC(OC(c3ccc(F)cc3)c3cccc(F)c3)CC2)c1 (centres unmarked) [Example 52]		0.0067	ED50 [4]: 0.1 mg/kg
COc1ccc(CN2CCC(OC(c3ccccc3)c3ccc(F)c(F)c3)CC2)nc1C(=O)O (centres unmarked) [Example 53]		0.014	
O=C(O)c1cccc(CN2CCC(=C3c4ccc(Cl)cc4CCc4cccnc43)CC2)n1 [Example 68]	0.04		
O=C(O)c1ccnc(CN2CCC(=C3c4ccccc4C=Cc4ccccc43)CC2)c1 [Example 72]		0.0089	ED50 [4]: 0.06 mg/kg
O=C(O)c1cccc(CN2CCC(=C3c4ccccc4CCc4ccccc43)CC2)c1 [Example 74]			ED50 [3]: 2.1 mg/kg
O=C(O)c1cccc(CN2CCC(=C3c4ccccc4CCc4ccccc43)CC2)n1 [Example 75]	0.067	0.023	ED50 [3]: 1.2 mg/kg
O=C(O)c1cccc(CN2CCC(=C3c4ccccc4COc4ccccc43)CC2)n1 [Example 80]		0.017	
O=C(O)c1cnn(CN2CCC(OC(c3ccccc3)c3ccccc3)CC2)c1 [Example 84]		0.017	
O=C(O)c1ccc(CN2CCC(OC(c3ccccc3)c3ccc(F)cc3)CC2)cn1 (centres unmarked) [Example 85]		0.022	
O=C(O)c1cccc(CN2CCC(OC(c3ccc(F)cc3)c3ccccc3F)CC2)n1 (centres unmarked) [Example 86]		0.016	
O=C(O)c1ccnc(CN2CCC(OC(c3ccc(F)cc3)c3ccccc3F)CC2)c1 (centres unmarked) [Example 87]		0.021	ED50 [4]: 0.06 mg/kg; Inhibitory effects in each allergic reaction phase: Immediate phase [5]: ++ (++ Inhibitory rate 45 to 20%); Inhibitory effects in each allergic reaction phase: Late phase [5]: ++ (++ Inhibitory rate 45 to 20%); Inhibitory effects in each allergic reaction phase: Very late phase [5]: + (+ Inhibitory rate 19 to 10%)
O=C(O)c1cncc(CN2CCC(OC(c3ccccc3)c3ccc(F)cc3)CC2)c1 (centres unmarked) [Example 88]		0.021	
O=C(O)c1cc(CN2CCC(OC(c3ccccc3)c3ccc(F)cc3)CC2)cs1 (centres unmarked) [Example 89]		0.0075	
O=C(O)c1cccc(CN2CCC(OC(c3ccccc3)c3cccc(Cl)c3)CC2)n1 (centres unmarked) [Example 116]		0.017	
O=C(O)c1ccnc(CN2CCC(OC(c3ccccc3)c3cccc(Cl)c3)CC2)c1 (centres unmarked) [Example 117]		0.024	
O=C(O)c1ccnc(CN2CCC(OC(c3ccc(F)cc3)c3ccc(F)cc3)CC2)c1 [Example 124]		0.0084	
O=C(O)c1cccc(CN2CC[C@@H](OC(c3ccccc3)c3ccccc3)C2)n1 [Example 128, 6-((R)-3-Benzhydryloxypyrrolidin-1-ylmethyl)pyridine-2-carboxylic acid]		0.0061	
O=C(O)c1cccc(CN2CC[C@H](OC(c3ccccc3)c3ccccc3)C2)n1 [Example 129, 6-((S)-3-Benzhydryloxypyrrolidin-1-ylmethyl)pyridine-2-carboxylic acid]		0.0051	ED50 [4]: 0.04 mg/kg; Inhibitory effects in each allergic reaction phase: Immediate phase [5]: ++ (++ Inhibitory rate 45 to 20%); Inhibitory effects in each allergic reaction phase: Late phase [5]: ++ (++ Inhibitory rate 45 to 20%); Inhibitory effects in each allergic reaction phase: Very late phase [5]: ++ (++ Inhibitory rate 45 to 20%)
O=C(O)c1ccnc(CN2CC[C@H](OC(c3ccccc3)c3ccccc3)C2)c1 [Example 131, 2-((S)-3-Benzhydryloxypyrrolidin-1-ylmethyl)isonicotinic acid]		0.015	
O=C(O)c1cccc(CN2CCN(C(c3ccccc3)c3ccc(F)cc3)CC2)n1 (centres unmarked) [Example 143]		0.024	
O=C(O)c1ccnc(CN2CC[C@H](OC(c3ccc(F)cc3)c3ccc(F)cc3)C2)c1 [Example 154]		0.013	
O=C(O)c1cccc(CN2CC[C@H](OC(c3ccc(F)cc3)c3ccc(F)cc3)C2)n1 [Example 155]		0.01	
